The values that follow come from patent US12600698B2, “Kinase inhibitors” (Vidya Therapeutics, Inc., priority 2021, dated 2026).

The assay deals with BTK (Homo sapiens, UniProt Q06187). The assay can be described thus: BTK IC50 (EZ reader kinase assay). The format is biochemical. More on the design: purchased Carna. The note with it: ATP 1 mM, BTK 2 nM, 90 minutes at room temperature. On the procedure: Solutions of compounds (test or control) in DMSO were prepared at the desired concentrations, and serially diluted to 11 concentrations by 3-fold dilution in 384pp-plate using TECAN EVO200. 20 nL of stock were transferred to 384 plate using Echo550. DMSO was used as vehicle control.
BTK, sequence (Q06187 whole entry): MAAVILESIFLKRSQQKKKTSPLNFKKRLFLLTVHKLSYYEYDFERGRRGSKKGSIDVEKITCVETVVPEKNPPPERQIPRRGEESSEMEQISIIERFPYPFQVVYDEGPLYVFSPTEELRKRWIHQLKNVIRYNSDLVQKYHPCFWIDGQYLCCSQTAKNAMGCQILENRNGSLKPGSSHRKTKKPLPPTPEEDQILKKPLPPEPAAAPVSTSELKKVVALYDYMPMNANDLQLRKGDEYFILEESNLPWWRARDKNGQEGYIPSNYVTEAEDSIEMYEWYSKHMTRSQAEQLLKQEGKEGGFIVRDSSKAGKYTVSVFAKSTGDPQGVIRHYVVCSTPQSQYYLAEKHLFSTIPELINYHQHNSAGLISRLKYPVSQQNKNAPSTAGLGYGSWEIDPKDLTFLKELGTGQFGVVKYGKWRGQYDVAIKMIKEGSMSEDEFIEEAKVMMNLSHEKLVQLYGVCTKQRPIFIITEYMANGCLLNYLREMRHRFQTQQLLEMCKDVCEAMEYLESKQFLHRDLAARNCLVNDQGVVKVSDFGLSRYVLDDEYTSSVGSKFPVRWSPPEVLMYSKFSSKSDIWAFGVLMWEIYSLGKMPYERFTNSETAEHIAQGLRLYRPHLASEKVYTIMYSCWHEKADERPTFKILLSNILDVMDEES
Two separate solutions were prepared—an ATP solution containing MgCl2 (10 mM), Brij-35 (0.01%), DTT (2 mM), BSA (0.05%), EGTA (1 mM), HEPE (pH7.5) (50 mM), FLPeptide (6 uM) and ATP (4 mM); and a BTK solution containing MgCl2 (10 mM), Brij-35 (0.01%), DTT (2 mM), BSA (0.05%), EGTA (1 mM), HEPE (pH7.5) (50 mM) and BTK (2.67 nM). (BTK was obtained from Carna; FLPeptide2 was obtained from PerkinElmer and Ibrutinib was obtained from Selleck.) 5 uL of ATP solution were added to each well, followed by addition of 15 uL of BTK solution to initiate the reaction. (Note the final volume of each well was 20 uL containing MgCl2 (10 mM), Brij-35 (0.01%), DTT (2 mM), BSA (0.05%), EGTA (1 mM), HEPE (pH7.5) (50 mM), FLPeptide (1.5 uM), ATP (1 mM) and BTK (2 nM). The plates were incubated at room temperature for 90 minutes and then stopping buffer added (75 uL, containing 0.5 M EDTA) to terminate the reaction. Samples from each well were analyzed using EZ reader.
The % remaining activity was calculated using read conversion ratio (CR) according to the equation: […]
XLFit (equation 201) was used to calculate IC50's by floating both bottom and top.
BTK IC50 values are provided in Table 5, for the compounds described in Examples 1-13, wherein: • “A” denotes an IC50<1 nM; • “B” denotes an IC50 1-10 nM; and • “C” denotes an IC50>10 nM.
The IC50 is the concentration at which inhibition is half-maximal. For the compound `CC#CC(=O)NC1CCC=C(c2c(F)cc(C(N)=O)c3[nH]c(C)c(Cl)c23)C1` (racemic) [1A(rac), 4-(5-(but-2-ynamido)cyclohex-1-en-1-yl)-3-chloro-5-fluoro-2-methyl-1H-indole-7-carboxamide], the IC50 was 1 to 10 nM.
`CC#CC(=O)NC1C=C(c2c(F)cc(C(N)=O)c3[nH]c(C)c(Cl)c23)CCC1` (racemic) [5B(rac), 4-(3-(but-2-ynamido)cyclohex-1-en-1-yl)-3-chloro-5-fluoro-2-methyl-1H-indole-7-carboxamide] gave an IC50 of 1 to 10 nM.
The result for `CC#CC(=O)N[C@H]1CCC[C@H](c2c(F)cc(C(N)=O)c3[nH]c(C)c(Cl)c23)C1` (relative stereo) [Compound 6-(trans), 4-((trans)-3-(but-2-ynamido)cyclohexyl)-3-chloro-5-fluoro-2-methyl-1H-indole-7-carboxamide] reads 1 to 10 nM; that for `CC#CC(=O)N(C)[C@H]1CCC=C(c2c(F)cc(C(N)=O)c3[nH]c(C)c(C)c23)C1` [4A(S), (S)-5-fluoro-2,3-dimethyl-4-(5-(N-methylbut-2-ynamido)cyclohex-1-en-1-yl)-1H-indole-7-carboxamide], 1 to 10 nM.
As for `CC#CC(=O)N(C)[C@@H]1C=C(c2c(F)cc(C(N)=O)c3[nH]c(C)c(C)c23)CCC1` [4B(S), (S)-5-fluoro-2,3-dimethyl-4-(3-(N-methylbut-2-ynamido)cyclohex-1-en-1-yl)-1H-indole-7-carboxamide], the IC50 was in the range of 1 to 10 nM.
The figure for `CC#CC(=O)N[C@H]1C=C(c2c(F)cc(C(N)=O)c3[nH]c(C)c(Cl)c23)CCC1` [5B(R), (R)-4-(3-(but-2-ynamido)cyclohex-1-en-1-yl)-3-chloro-5-fluoro-2-methyl-1H-indole-7-carboxamide] is 1 to 10 nM.
The result for `CC#CC(=O)N[C@@H]1CCC[C@@H](c2c(F)cc(C(N)=O)c3[nH]c(C)c(Cl)c23)C1` [6-(1R,3R), 4-((1R,3R)-3-(but-2-ynamido)cyclohexyl)-3-chloro-5-fluoro-2-methyl-1H-indole-7-carboxamide] reads greater than 10 nM.
The result for `CC#CC(=O)N[C@H]1CCC[C@H](c2c(F)c(F)c(C(N)=O)c3[nH]c(C)c(Cl)c23)C1` [11-(1S,3S), 4-[(1S,3S)-3-(but-2-ynoylamino)cyclohexyl]-3-chloro-5,6-difluoro-2-methyl-1H-indole-7-carboxamide] reads greater than 10 nM; that for `CC#CC(=O)N[C@H]1CC[C@H](c2c(F)cc(C(N)=O)c3[nH]c(C)c(C)c23)C1` [12-(1S,3S), 4-((1S,3S)-3-(but-2-ynamido)cyclopentyl)-5-fluoro-2,3-dimethyl-1H-indole-7-carboxamide], greater than 10 nM.
As to `CC#CC(=O)N[C@@H]1CC[C@H](c2c(F)cc(C(N)=O)c3[nH]c(C)c(C)c23)C1` [13-(1S,3R), 4-((1S,3R)-3-(but-2-ynamido)cyclopentyl)-5-fluoro-2,3-dimethyl-1H-indole-7-carboxamide], the IC50 was greater than 10 nM.
`CC#CC(=O)N[C@H]1CCC[C@H](c2c(F)c(F)c(C(N)=O)c3[nH]c(C)c(C#N)c23)C1` [Compound 7-(1S,3S), 4-((1S,3S)-3-(but-2-ynamido)cyclohexyl)-3-cyano-5,6-difluoro-2-methyl-1H-indole-7-carboxamide]: the IC50 is greater than 10 nM.
The figure for `CC#CC(=O)N[C@@H]1CCC[C@@H](c2c(F)c(F)c(C(N)=O)c3[nH]c(C)c(F)c23)C1` [Compound 8-(1R,3R), 4-((1R,3R)-3-(but-2-ynamido)cyclohexyl)-3,5,6-trifluoro-2-methyl-1H-indole-7-carboxamide] is 1 to 10 nM; for `CC#CC(=O)N[C@H]1CCC[C@@H](c2c(F)c(F)c(C(N)=O)c3[nH]c(C)c(F)c23)C1` [Compound 8-(1R,3S), 4-((1R,3S)-3-(but-2-ynamido)cyclohexyl)-3,5,6-trifluoro-2-methyl-1H-indole-7-carboxamide] it is 1 to 10 nM; for `CC#CC(=O)N[C@@H]1CCC[C@H](c2c(F)c(F)c(C(N)=O)c3[nH]c(C)c(F)c23)C1` [Compound 8-(1S,3R), 4-((1S,3R)-3-(but-2-ynamido)cyclohexyl)-3,5,6-trifluoro-2-methyl-1H-indole-7-carboxamide] it is greater than 10 nM.
The figure for `CC#CC(=O)N[C@H]1CCC[C@H](c2c(F)c(F)c(C(N)=O)c3[nH]c(C)c(F)c23)C1` [Compound 8-(1S,3S), 4-((1S,3S)-3-(but-2-ynamido)cyclohexyl)-3,5,6-trifluoro-2-methyl-1H-indole-7-carboxamide] is greater than 10 nM; for `CC#CC(=O)N[C@@H]1CCC[C@@H](c2c(F)c(F)c(C(N)=O)c3[nH]c(C)c(C)c23)C1` [Compound 9-(1R,3R), 4-((1R,3R)-3-(but-2-ynamido)cyclohexyl)-5,6-difluoro-2,3-dimethyl-1H-indole-7-carboxamide] it is greater than 10 nM.
`CC#CC(=O)N[C@H]1CCC[C@@H](c2c(F)c(F)c(C(N)=O)c3[nH]c(C)c(C)c23)C1` [Compound 9-(1R,3S), 4-((1R,3S)-3-(but-2-ynamido)cyclohexyl)-5,6-difluoro-2,3-dimethyl-1H-indole-7-carboxamide]: the half-inhibitory concentration (IC50) was greater than 10 nM.
`CC#CC(=O)N[C@@H]1CCC[C@H](c2c(F)c(F)c(C(N)=O)c3[nH]c(C)c(C)c23)C1` [Compound 9-(1S,3R), 4-((1S,3R)-3-(but-2-ynamido)cyclohexyl)-5,6-difluoro-2,3-dimethyl-1H-indole-7-carboxamide] gave an IC50 of 1 to 10 nM.
The result for `CC#CC(=O)N[C@H]1CCC[C@H](c2c(F)c(F)c(C(N)=O)c3[nH]c(C)c(C)c23)C1` [Compound 9-(1S,3S), 4-((1S,3S)-3-(but-2-ynamido)cyclohexyl)-5,6-difluoro-2,3-dimethyl-1H-indole-7-carboxamide] reads 1 to 10 nM.
